Data published in PubChem BioAssay (NCI).
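Interpolation was linear, between the two tested concentrations surrounding the appropriate level; five concentrations were tested over 48 hours in 96-well plates. At the TGI there is no net growth.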

How the values were obtained:
Experiment in all cases: NCI anticancer screen, dose series, 48 h
786-0 renal = tested on: 786-0 renal
A498 renal = tested on: A498 renal
A549 NSCLC = tested on: A549 NSCLC
ACHN renal = tested on: ACHN renal
BT-549 breast = tested on: BT-549 breast
COLO 205 colon = tested on: COLO 205 colon
EKVX NSCLC = tested on: EKVX NSCLC
HCC-2998 colon = tested on: HCC-2998 colon
HCT-116 colon = tested on: HCT-116 colon
HCT-15 colon = tested on: HCT-15 colon
HL-60(TB) leukemia = tested on: HL-60(TB) leukemia
HOP-62 NSCLC = tested on: HOP-62 NSCLC
HOP-92 NSCLC = tested on: HOP-92 NSCLC
HS 578T breast = tested on: HS 578T breast
HT29 colon = tested on: HT29 colon
IGROV1 ovarian = tested on: IGROV1 ovarian
K-562 leukemia = tested on: K-562 leukemia
KM12 colon = tested on: KM12 colon
M14 melanoma = tested on: M14 melanoma
MALME-3M melanoma = tested on: MALME-3M melanoma
MCF7 breast = tested on: MCF7 breast
MDA-MB-231 breast = tested on: MDA-MB-231 breast
MDA-N = tested on: MDA-N
MOLT-4 leukemia = tested on: MOLT-4 leukemia
NCI-H226 lung = tested on: NCI-H226 lung
NCI-H23 lung = tested on: NCI-H23 lung
NCI-H460 lung = tested on: NCI-H460 lung
OVCAR-5 ovarian = tested on: OVCAR-5 ovarian
OVCAR-8 ovarian = tested on: OVCAR-8 ovarian
PC-3 prostate = tested on: PC-3 prostate
RPMI-8226 leukemia = tested on: RPMI-8226 leukemia
RXF 393 renal = tested on: RXF 393 renal
SK-MEL-2 melanoma = tested on: SK-MEL-2 melanoma
SK-MEL-28 melanoma = tested on: SK-MEL-28 melanoma
SK-MEL-5 melanoma = tested on: SK-MEL-5 melanoma
SN12C renal = tested on: SN12C renal
SNB-19 CNS = tested on: SNB-19 CNS
SNB-75 CNS = tested on: SNB-75 CNS
SW-620 colon = tested on: SW-620 colon
T-47D breast = tested on: T-47D breast
TK-10 renal = tested on: TK-10 renal
U251 CNS = tested on: U251 CNS
UACC-257 melanoma = tested on: UACC-257 melanoma
UACC-62 melanoma = tested on: UACC-62 melanoma
UO-31 renal = tested on: UO-31 renal

## CCOC(=O)CCC(NC(=O)C(CCC(=O)OCC)NC(=O)C(Cc1ccc([N+](=O)[O-])cc1)NC(C)=O)C(=O)NNC(=O)OC(C)(C)C (stereo not given)
786-0 renal
  TGI: > 100 µM
A498 renal
  TGI: > 100 µM
A549 NSCLC
  TGI: > 100 µM
ACHN renal
  TGI: > 100 µM
BT-549 breast
  TGI: > 100 µM
COLO 205 colon
  TGI: > 100 µM
EKVX NSCLC
  TGI: > 100 µM
HCC-2998 colon
  TGI: > 100 µM
HCT-116 colon
  TGI: > 100 µM
HCT-15 colon
  TGI: > 100 µM
HL-60(TB) leukemia
  TGI: > 100 µM
HOP-62 NSCLC
  TGI: > 100 µM
HOP-92 NSCLC
  TGI: > 100 µM
HS 578T breast
  TGI: > 100 µM
HT29 colon
  TGI: > 100 µM
IGROV1 ovarian
  TGI: > 100 µM
K-562 leukemia
  TGI: > 100 µM
KM12 colon
  TGI: > 100 µM
M14 melanoma
  TGI: > 100 µM
MALME-3M melanoma
  TGI: > 100 µM
MCF7 breast
  TGI: > 100 µM
MDA-MB-231 breast
  TGI: > 100 µM
MDA-N
  TGI: > 100 µM
MOLT-4 leukemia
  TGI: > 100 µM
NCI-H226 lung
  TGI: > 100 µM
NCI-H23 lung
  TGI: > 100 µM
NCI-H460 lung
  TGI: > 100 µM
OVCAR-5 ovarian
  TGI: > 100 µM
OVCAR-8 ovarian
  TGI: > 100 µM
PC-3 prostate
  TGI: > 100 µM
RPMI-8226 leukemia
  TGI: > 100 µM
RXF 393 renal
  TGI: 32.9 µM
SK-MEL-2 melanoma
  TGI: > 100 µM
SK-MEL-28 melanoma
  TGI: > 100 µM
SK-MEL-5 melanoma
  TGI: > 100 µM
SN12C renal
  TGI: > 100 µM
SNB-19 CNS
  TGI: > 100 µM
SNB-75 CNS
  TGI: > 100 µM
SW-620 colon
  TGI: > 100 µM
T-47D breast
  TGI: > 100 µM
TK-10 renal
  TGI: > 100 µM
U251 CNS
  TGI: > 100 µM
UACC-257 melanoma
  TGI: > 100 µM
UACC-62 melanoma
  TGI: > 100 µM
UO-31 renal
  TGI: > 100 µM
